Experimental data taken from PubChem BioAssay (NCI).
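Briefly, cells in 96-well plates were exposed to five compound concentrations for 48 h, and endpoints were estimated by linear interpolation. Abbreviation: GI50, concentration required for 50% inhibition of growth. Definition used: TGI = concentration required for complete inhibition of growth.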

What was measured:
Test in all cases: DTP human tumour cell line panel, 48 h
HOP-62 NSCLC = tested on: HOP-62 NSCLC
IGROV1 ovarian = tested on: IGROV1 ovarian
A549 NSCLC = tested on: A549 NSCLC
786-0 renal = tested on: 786-0 renal
OVCAR-4 ovarian = tested on: OVCAR-4 ovarian
SW-620 colon = tested on: SW-620 colon
SNB-19 CNS = tested on: SNB-19 CNS
MDA-MB-231 breast = tested on: MDA-MB-231 breast
BT-549 breast = tested on: BT-549 breast
NCI/ADR-RES ovarian = tested on: NCI/ADR-RES ovarian

SMILES	TGI (HOP-62 NSCLC)	TGI (IGROV1 ovarian)	TGI (A549 NSCLC)	TGI (786-0 renal)	TGI (OVCAR-4 ovarian)	TGI (SW-620 colon)	TGI (SNB-19 CNS)	GI50 (IGROV1 ovarian)	GI50 (A549 NSCLC)	GI50 (SNB-19 CNS)	GI50 (786-0 renal)	GI50 (OVCAR-4 ovarian)	GI50 (SW-620 colon)	GI50 (MDA-MB-231 breast)	TGI (MDA-MB-231 breast)	GI50 (BT-549 breast)	TGI (BT-549 breast)	GI50 (NCI/ADR-RES ovarian)	TGI (NCI/ADR-RES ovarian)	GI50 (HOP-62 NSCLC)
COc1cc(C(C#N)NNc2nc(C)cc(=O)[nH]2)cc(OC)c1OC (stereo not drawn)	> 100 µM	> 100 µM	> 100 µM	> 100 µM	> 100 µM	> 100 µM	–	–	–	–	–	–	–	–	–	–	–	–	–	–
CC(=O)OC(=O)O/C=C\CCl	> 100 µM	> 100 µM	> 100 µM	> 100 µM	> 100 µM	> 100 µM	> 100 µM	–	–	–	–	–	–	–	–	–	–	–	–	–
COC(=O)C(C(=O)C(N)=O)c1csc(-n2nc(-c3ccccc3)cc2-c2ccccc2)n1 (stereo not drawn)	–	> 31.6 µM	> 31.6 µM	> 31.6 µM	> 31.6 µM	6.02 µM	17.2 µM	–	–	–	–	–	–	–	–	–	–	–	–	–
O=C1CCC(=O)c2sccc2N1	> 100 µM	> 100 µM	> 100 µM	> 100 µM	> 100 µM	> 100 µM	> 100 µM	–	–	–	–	–	–	–	–	–	–	–	–	–
O=CCCCC(Sc1ccccc1)Sc1ccccc1	> 100 µM	50.5 µM	> 100 µM	46 µM	45.6 µM	23.6 µM	> 100 µM	–	–	–	–	–	–	–	–	–	–	–	–	–
CC(C)N1C(C)[C@@H](c2ccccc2)O[P@]1(=O)CC1=CCCCC1 (stereo partly drawn)	> 100 µM	> 100 µM	> 100 µM	> 100 µM	–	> 100 µM	> 100 µM	–	–	–	–	–	–	–	–	–	–	–	–	–
Cc1c(Cl)c(C)c(Cc2c(C)c(Cl)c(C)c(Cl)c2O)c(O)c1Cl	–	19 µM	18.6 µM	9.84 µM	9.97 µM	13.5 µM	13.8 µM	4.07 µM	4.07 µM	3.15 µM	2.98 µM	2.99 µM	3.14 µM	2380 nM	7.2 µM	2370 nM	8.33 µM	3.09 µM	10.2 µM	–
COc1ccc2c(c1)c1c3n2CCNN=C3CCC1	> 100 µM	> 100 µM	> 100 µM	> 100 µM	> 100 µM	> 100 µM	> 100 µM	–	–	–	–	–	–	–	–	–	–	–	–	–
N#CC(C(=O)CCCC(=O)Nc1ccc(Cl)cc1Cl)c1ccc(Cl)cc1 (stereo not drawn)	> 100 µM	> 100 µM	> 100 µM	> 100 µM	> 100 µM	> 100 µM	> 100 µM	–	–	–	–	–	–	–	–	–	–	–	–	–
O=C(/C=C/C1C(=O)NC(=O)NC1=O)CC(=O)C(=O)Nc1cc(Cl)c(Cl)cc1Cl	> 100 µM	> 100 µM	> 100 µM	> 100 µM	> 100 µM	> 100 µM	> 100 µM	–	–	–	–	–	–	–	–	–	–	–	–	–
COc1cc(-c2cc(=O)c3c(O)c(OC)c(OC)c(OC)c3o2)cc(OC)c1OC	16.9 µM	> 100 µM	> 100 µM	15.6 µM	> 100 µM	–	> 78.7 µM	–	–	–	–	–	–	–	38.5 µM	–	> 100 µM	–	> 100 µM	–
O=C(c1ccc2ccccc2c1)c1c(C(F)(F)F)n([O-])c2ccc(F)cc2[n+]1=O	3.39 µM	–	3.41 µM	3.01 µM	3.22 µM	3.2 µM	3.02 µM	–	1.8 µM	1.51 µM	1.57 µM	1.67 µM	1.5 µM	1480 nM	3.02 µM	1750 nM	3.22 µM	2.1 µM	4.57 µM	1.91 µM
Cc1ccc(/C=N/NS(=O)(=O)c2ccccc2)c(C)c1	> 100 µM	> 100 µM	> 100 µM	> 100 µM	> 100 µM	> 100 µM	–	–	–	–	–	–	–	–	–	–	–	–	–	–
[CH3][Sn]1([CH3])[O]CC(COc2cc(Cl)c(Cl)cc2Cl)[O]1 (stereo not drawn)	> 100 µM	> 100 µM	> 100 µM	> 100 µM	> 100 µM	> 100 µM	> 100 µM	70.3 µM	83.6 µM	> 100 µM	> 100 µM	> 100 µM	51 µM	–	–	–	–	–	–	> 100 µM
C/C(CC(=O)Nc1cccc([N+](=O)[O-])c1)=N\NC(=O)CC#N	> 100 µM	> 100 µM	> 100 µM	> 100 µM	–	> 100 µM	–	–	–	–	–	–	–	–	–	–	–	–	–	–
O=c1c2ccccc2nc(-c2ccccc2)n1NC(=S)Nc1cccc(Cl)c1	> 100 µM	> 100 µM	> 100 µM	> 100 µM	> 100 µM	> 100 µM	–	–	–	–	–	–	–	–	–	–	–	–	–	–
CC(=O)Nc1ccc(-c2nnc(SCC(=O)Nc3ccc(Cl)cc3)o2)cc1	39.7 µM	29.3 µM	32 µM	19.6 µM	55.9 µM	29.8 µM	35.7 µM	–	–	–	–	–	–	–	–	–	–	–	–	–
c1ccc(-c2ccnc3c2ccc2c(-c4ccccc4)ccnc23)cc1	7.86 µM	18.2 µM	8.71 µM	10.4 µM	12.7 µM	15 µM	13.9 µM	–	–	–	–	–	–	–	–	–	–	–	–	–
COc1ccc(C)cc1C1CCC(=O)O1 (stereo not drawn)	> 100 µM	> 100 µM	> 100 µM	> 100 µM	–	> 100 µM	> 100 µM	–	–	–	–	–	–	–	–	–	–	–	–	–
NS(=O)(=O)c1ccc(NC(=O)c2cccc(NC3=C(Cl)C(=O)N(Cc4ccccc4)C3=O)c2)cc1	> 100 µM	19.2 µM	52.3 µM	> 100 µM	> 100 µM	44.4 µM	> 100 µM	4.78 µM	21.2 µM	27.1 µM	21.5 µM	35.7 µM	6.1 µM	6930 nM	37 µM	5310 nM	21.3 µM	–	–	31.5 µM
O=Cc1ccc(N2CCN(c3ccc(C=O)cc3)CC2)cc1	> 100 µM	> 100 µM	> 100 µM	> 100 µM	> 100 µM	> 100 µM	> 100 µM	45.8 µM	40.1 µM	> 100 µM	> 100 µM	5.68 µM	> 100 µM	> 100000 nM	> 100 µM	–	–	> 100 µM	> 100 µM	> 100 µM
O=S1(=O)c2ccccc2N=C(c2ccccc2Cl)CC1c1ccc(F)cc1 (stereo not drawn)	–	37.4 µM	47.4 µM	30.5 µM	32.8 µM	31.5 µM	31.4 µM	–	–	–	–	–	–	–	–	–	–	–	–	–
